Structures are written as SMILES.

The experiment has as its system Bovine cardiac myofibrils. Nature of the experiment: In vitro model of dose-dependent myofibril ATPase modulation (AC1.4, pyruvate kinase/lactate dehydrogenase-coupled ATPase assay at pCa25). It is filed as biochemical. Conditions: concentration at which ATPase activity was 1.4-fold higher than the bottom of the dose curve, mean of a minimum of two independent tests. The method in brief: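 Coupled-enzyme ATPase on bovine heart myofibrils, 1 mM ATP, EGTA/CaCl2 buffered; 340 nm readout.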
The molecule `O=C(NC1CN(S(=O)(=O)N2CCC[C@H](C(=O)N3CCC[C@@H]3C(=O)NCc3ccc(C(F)(F)F)cc3)C2)C1)C1CC1` [Example 710, 1-(((3S)-1-((3-((cyclopropylcarbonyl)amino)-1-azetidinyl)sulfonyl)-3-piperidinyl)carbonyl)-N-(4-(trifluoromethyl)benzyl)-D-prolinamide] gave an AC1.4 of 5.887 µM.
Then `N#CC1CN(S(=O)(=O)n2cc(C(=O)N3CCC[C@@H]3C(=O)NCc3ccc(C(F)(F)F)cc3)cn2)C1` [Example 123, 1-((1-((3-cyano-1-azetidinyl)sulfonyl)-1H-pyrazol-4-yl)carbonyl)-N-(4-(trifluoromethyl)benzyl)-D-prolinamide], with 0.189 µM.
In turn, `N#CC1CN(S(=O)(=O)N2CCC[C@H](C(=O)N3CCC[C@@H]3C(=O)NCc3cc(Cl)ccc3Cl)C2)C1` [Example 651, 1-(((3S)-1-((3-cyano-1-azetidinyl)sulfonyl)-3-piperidinyl)carbonyl)-N-(2,5-dichlorobenzyl)-D-prolinamide] showed an AC1.4 of 4.4705 µM.
With `N#CC1CN(S(=O)(=O)N2CCC[C@H](C(=O)N3CCC[C@@H]3C(=O)NCc3ccc(C4CC4)cc3)C2)C1` [Example 447, 1-(((3S)-1-((3-cyano-1-azetidinyl)sulfonyl)-3-piperidinyl)carbonyl)-N-(4-cyclopropylbenzyl)-D-prolinamide], the AC1.4 was determined as 1.831 µM.
Then `COc1ccc(CNC(=O)[C@H]2CCCN2C(=O)[C@H]2CCCN(S(=O)(=O)N3CC(C#N)C3)C2)cc1F` [Example 457, 1-(((3S)-1-((3-cyano-1-azetidinyl)sulfonyl)-3-piperidinyl)carbonyl)-N-(3-fluoro-4-methoxybenzyl)-D-prolinamide], with 1.8865 µM; and `Cc1cc(C(=O)N2[C@@H](C(=O)N[C@@H](c3ccc(C(F)(F)F)cc3F)C3CC3)C[C@H]3C[C@H]32)c(NC2CCC2)cn1` [Example 230, (1R,3R,5R)-2-((5-(cyclobutylamino)-2-methyl-4-pyridinyl)carbonyl)-N-((R)-cyclopropyl(2-fluoro-4-(trifluoromethyl)phenyl)methyl)-2-azabicyclo[3.1.0]hexane-3-carboxamide], with 0.5074 µM; and `CC(C)Nc1ccc(S(C)(=O)=O)cc1C(=O)N1[C@@H](C(=O)N[C@@H](c2ccc(C(F)(F)F)cc2F)C2CC2)C[C@H]2C[C@H]21` [Example 61, (1R,3R,5R)-N-((R)-cyclopropyl(2-fluoro-4-(trifluoromethyl)phenyl)methyl)-2-(5-(methylsulfonyl)-2-(2-propanylamino)benzoyl)-2-azabicyclo[3.1.0]hexane-3-carboxamide], with 0.0687 µM.
In the case of `N#CC1CN(S(=O)(=O)N2CCC[C@H](C(=O)N3CCC[C@@H]3C(=O)NCc3cnc(C(F)(F)F)nc3)C2)C1` [Example 400, 1-(((3S)-1-((3-cyano-1-azetidinyl)sulfonyl)-3-piperidinyl)carbonyl)-N-((2-(trifluoromethyl)-5-pyrimidinyl)methyl)-D-prolinamide] it was 1.4048 µM; in that of `O=C(N[C@@H](c1ccc(C(F)(F)F)c(F)c1)C1CC1)[C@H]1C[C@H]2C[C@H]2N1C(=O)c1cccc(S(=O)(=O)C2CC2)c1` [Example 310, (1R,3R,5R)—N—((R)-cyclopropyl(3-fluoro-4-(trifluoromethyl)phenyl)methyl)-2-(3-(cyclopropylsulfonyl)benzoyl)-2-azabicyclo[3.1.0]hexane-3-carboxamide], 0.8061 µM; in that of `CS(=O)(=O)c1cccc(C(=O)N2C[C@@H](F)C[C@@H]2C(=O)N[C@@H](c2ccc(C(F)(F)F)cc2F)C2COC2)c1` [Example 528, (4S)-4-fluoro-N-((R)-(2-fluoro-4-(trifluoromethyl)phenyl)(3-oxetanyl)methyl)-1-(3-(methylsulfonyl)benzoyl)-D-prolinamide], 2.4294 µM.
In the case of `COC(=O)CS(=O)(=O)c1cccc(C(=O)N2[C@@H](C(=O)N[C@@H](c3cc(F)c(C(F)(F)F)cc3F)C3CC3)C[C@H]3C[C@H]32)c1` [Example 80, methyl((3-(((1R,3R,5R)-3-(((R)-cyclopropyl(2,5-difluoro-4-(trifluoromethyl)phenyl)methyl)carbamoyl)-2-azabicyclo[3.1.0]hexan-2-yl)carbonyl)phenyl)sulfonyl)acetate] it was 0.1046 µM; in that of `CNc1ccc(S(C)(=O)=O)cc1C(=O)N1[C@@H](C(=O)N[C@@H](c2ccc(C(F)(F)F)cc2F)C2CC2)C[C@H]2C[C@H]21` [Example 148, (1R,3R,5R)-N-((R)-cyclopropyl(2-fluoro-4-(trifluoromethyl)phenyl)methyl)-2-(2-(methylamino)-5-(methylsulfonyl)benzoyl)-2-azabicyclo[3.1.0]hexane-3-carboxamide], 0.2569 µM.
As to `CS(=O)(=O)c1cccc(C(=O)N2[C@@H](C(=O)N[C@@H]3CCc4cc(Cl)ccc43)C[C@H]3C[C@H]32)c1` [Example 753, (1R,3R,5R)-N-((1R)-5-chloro-2,3-dihydro-1H-inden-1-yl)-2-(3-(methylsulfonyl)benzoyl)-2-azabicyclo[3.1.0]hexane-3-carboxamide], the AC1.4 worked out at 7.42 µM.
Turning to `N#Cc1ccc(CNC(=O)[C@H]2CCCN2C(=O)c2cccc(S(=O)(=O)N3CC(C#N)C3)c2)cc1` [Example 250, 1-((3-((3-cyano-1-azetidinyl)sulfonyl)phenyl)carbonyl)-N-(4-cyanobenzyl)-D-prolinamide], the AC1.4 was determined as 0.5978 µM.
In the case of `N#CC1CN(S(=O)(=O)N2CCO[C@H](C(=O)N3CCC[C@@H]3C(=O)NCc3ccc(C(F)(F)F)cc3)C2)C1` [Example 149, 1-(((2S)-4-((3-cyano-1-azetidinyl)sulfonyl)-2-morpholinyl)carbonyl)-N-(4-(trifluoromethyl)benzyl)-D-prolinamide] it was 0.2589 µM.
In the case of `CN1CC(C(=O)N[C@@H](c2ccc(C(F)(F)F)cc2F)C2CC2)N(C(=O)c2cccc(S(C)(=O)=O)c2)C1=O` (stereo partly drawn) [Example 696, N-((R)-cyclopropyl(2-fluoro-4-(trifluoromethyl)phenyl)methyl)-1-methyl-3-(3-(methylsulfonyl)benzoyl)-2-oxoimidazolidine-4-carboxamide] it was 5.525 µM.
In the case of `N#CC1CN(S(=O)(=O)c2cccc(C(=O)N3CCC[C@@H]3C(=O)N[C@@H](c3ccc(C(F)(F)F)cc3)C3CC3)c2)C1` [Example 30, 1-(3-((3-cyano-1-azetidinyl)sulfonyl)benzoyl)-N-((R)-cyclopropyl(4-(trifluoromethyl)phenyl)methyl)-D-prolinamide] it was 0.0318 µM; in that of `Cc1ccnc(C(=O)N2[C@@H](C(=O)N[C@@H](c3cc(F)c(Cl)cc3F)C3CC3)C[C@H]3C[C@H]32)c1` [Example 702, (1R,3R,5R)-N-((R)-(4-chloro-2,5-difluorophenyl)(cyclopropyl)methyl)-2-((4-methyl-2-pyridinyl)carbonyl)-2-azabicyclo[3.1.0]hexane-3-carboxamide], 5.6535 µM; in that of `COc1cc(C(F)(F)F)ccc1[C@H](NC(=O)[C@H]1C[C@H]2C[C@H]2N1C(=O)c1cccc(S(C)(=O)=O)c1)C1CC1` [Example 309, (1R,3R,5R)-N-((R)-cyclopropyl(2-methoxy-4-(trifluoromethyl)phenyl)methyl)-2-(3-(methylsulfonyl)benzoyl)-2-], 0.822 µM.
As for `N#CC1CN(S(=O)(=O)N2CCC[C@H](C(=O)N3CCC[C@@H]3C(=O)N[C@H](CCO)c3ccc(C(F)(F)F)cc3)C2)C1` [Example 36, 1-(((3S)-1-((3-cyano-1-azetidinyl)sulfonyl)-3-piperidinyl)carbonyl)-N-((1R)-3-hydroxy-1-(4-(trifluoromethyl)phenyl)propyl)-D-prolinamide], the AC1.4 was 0.03765 µM.
In the case of `C[C@H](C(=O)N[C@H](C)c1ccc(Cl)cc1F)N(C)C(=O)[C@H]1CCCN(S(=O)(=O)N2CC(C#N)C2)C1` [Example 317, (3S)-N-((2R)-1-(((1R)-1-(4-chloro-2-fluorophenyl)ethyl)amino)-l-oxo-2-propanyl)-1-((3-cyano-1-azetidinyl)sulfonyl)-N-methyl-3-piperidinecarboxamide] it was 0.8619 µM; in that of `C[C@H](C(=O)NCc1ccc(Cl)cc1)N(C)C(=O)c1cccc(S(=O)(=O)N2CC(C#N)C2)c1` [Example 337, N-((1R)-2-((4-chlorobenzyl)amino)-1-methyl-2-oxoethyl)-3-((3-cyano-1-azetidinyl)sulfonyl)-N-methylbenzamide], 0.9477 µM; in that of `N#CC1CN(S(=O)(=O)N2CCC[C@H](C(=O)N3CCC[C@@H]3C(=O)NCc3cccc(C(F)(F)F)c3)C2)C1` [Example 353, 1-(((3S)-1-((3-cyano-1-azetidinyl)sulfonyl)-3-piperidinyl)carbonyl)-N-(3-(trifluoromethyl)benzyl)-D-prolinamide], 1.0398 µM.
In the case of `N#CC1CN(S(=O)(=O)c2cccc(C(=O)N3CCC[C@@H]3C(=O)NCc3cc(F)cc(F)c3F)c2)C1` [Example 100, 1-(3-((3-cyano-1-azetidinyl)sulfonyl)benzoyl)-N-(2,3,5-trifluorobenzyl)-D-prolinamide] it was 0.1502 µM.
For `N#CC1CN(S(=O)(=O)c2cccc(C(=O)N3C[C@H]4C[C@H]4[C@@H]3C(=O)NCc3ccc(C(F)(F)F)cc3)c2)C1` [Example 5], the AC1.4 came to 0.01655 µM.
In the case of `COc1ccc(S(C)(=O)=O)cc1C(=O)N1CCCC[C@@H]1C(=O)N[C@@H](c1ccc(C(F)(F)F)cc1F)C1CC1` [Example 646, (2R)-N-((R)-cyclopropyl(2-fluoro-4-(trifluoromethyl)phenyl)methyl)-1-(2-methoxy-5-(methylsulfonyl)benzoyl)-2-piperidinecarboxamide], the AC1.4 turned out to be 4.377 µM.

The values are drawn from US11780826B2 (Amgen Inc., priority 2017, dated 2023).
